Laboratory results published in article PMC12040169 (PLOS Biology, 2025).

Assay: in vitro
Conditions: human, hela cells, % viability

Structure (SMILES) | viability at 28.5 h, 10 µM [%]
Cn1cc(-c2nc(C(=O)NCc3ccnc(N4CCCC4)c3)cs2)cn1 [CBK305666] | 92.9
O=C(Cn1cc(Br)ccc1=O)NC1CCCN(Cc2ccccc2)C1 (centres unmarked) [CBK305668] | 83.7
Cc1cccc(CN2CCC(NC(=O)Cn3cc(Br)ccc3=O)CC2)c1 [CBK305669] | 80
O=C(Cn1cc(Br)ccc1=O)NC1CCN(Cc2ccccc2)CC1 [CBK305671] | 95.6
CCCNC(=O)CN(C)Cc1nc(-c2cccc(C(F)(F)F)c2)no1 [CBK305672] | 103
Cn1cc(C(=O)NC2CCN(C(=O)c3cccc(C#N)c3)CC2)cn1 [CBK305673] | 110
O=C(CCN1CCCC1Cn1cncn1)NCCc1ccccc1 (centres unmarked) [CBK305677] | 92.9
CC(OCc1ccccc1)C(=O)NCC1(N2CCOCC2)CCSC1 (centres unmarked) [CBK305678] | 114
CC(=O)Nc1ccc(CNC(=O)c2cccnc2OCC(F)(F)F)cc1 [CBK305682] | 91.5
Cn1cc(C(=O)NC2CCN(C(=O)c3ccc(C#N)cc3)CC2)cn1 [CBK305683] | 94.4
Cc1cc(NC(=O)C2CCN(CCOc3ccccc3F)CC2)no1 [CBK305688] | 100
CCCC(=O)Nc1ccc(OCCOC(C)(C)C)c(C(C)=O)c1 [CBK305691] | 79.8
Cc1nn(CCC#N)c(C)c1CCC(=O)NCc1ccccn1 [CBK305693] | 82.5
CCOC(=O)c1cnn2c(O)cc(CN3CCCc4ccccc43)nc12 [CBK305694] | 118
CC(C)(C)OC(=O)N1CCC(C(=O)NCc2ccccn2)CC1 [CBK305696] | 103
CCOC(=O)N1CCC(NS(=O)(=O)c2cn(C)c(=O)n(C)c2=O)CC1 [CBK305699] | 89.1
CCN(Cc1ccc(C#N)cc1F)C(=O)Nc1cnn(CC)c1 [CBK305702] | 93.1
COCCn1c(SCc2cn3cc(Br)ccc3n2)nc(C)c1C [CBK305704] | 83.1
CCCCc1nc(CS(=O)(=O)C(C)c2nc(C(C)C)no2)cs1 (centres unmarked) [CBK305707] | 88.3
Cc1cc(C)n(CCCNC(=O)Cc2csc(N3CCCC3=O)n2)n1 [CBK305708] | 94.6
COC(=O)c1cc(C#N)c(=O)n(CC(O)COc2c(C)cccc2C)c1 (centres unmarked) [CBK305709] | 97.2
Cc1cc(N2CCN(C(=O)CCc3ccccc3)CC2)nc(C(C)C)n1 [CBK305711] | 99.3
COc1ccc(CN2CCN(C(=O)c3cccc(N(C)C)c3)CC2)cc1 [CBK305713] | 98

Structure (SMILES) | viability at 28.5 h, 10 µM [%]
C#CCNS(=O)(=O)c1cccc(C(=O)NC2CCN(CCOC)CC2)c1 [CBK305714] | 89
COC(=O)c1cc(C#N)c(=O)n(CC(O)COCc2ccco2)c1 (centres unmarked) [CBK305718] | 94.7
COc1ccc(C(=O)N2CCN(c3cnn(C)c(=O)c3Cl)CC2)cc1 [CBK305720] | 84.8
Cn1cc(C(=O)OCc2cccc(S(=O)(=O)N3CCOCC3)c2)cn1 [CBK305721] | 88.1
Cc1cc(C)cc(C(=O)N2CCC(NC(=O)c3cnn(C)c3)CC2)c1 [CBK305723] | 92.3
Cc1cc(N2CCOCC2)ccc1NC(=O)CCOc1cccc(Cl)c1 [CBK305724] | 102
CCc1nc(COC(=O)C2CCN(C(=O)c3ccc(F)cc3)CC2)cs1 [CBK305725] | 111
O=C(NCCNc1cnccn1)c1cccc(Cl)c1Cl [CBK305727] | 84.9
CC(=O)Nc1ccc(C(=O)NCc2ccc(OCC(F)(F)F)cc2)cc1 [CBK305732] | 98
COC(=O)c1ccc(N2CCN(Cc3nc(C4CC4)no3)C(C)C2)cc1 (centres unmarked) [CBK305744] | 98
CN(CCCc1cc(-c2cccc(F)c2)n[nH]1)C(=O)c1cnn(C)c1 [CBK305745] | 86.6
CCc1ccc(CNC(=O)NC2CCCc3c2cnn3CCO)s1 (centres unmarked) [CBK305747] | 84.4
CC(Oc1cccc(C#N)c1)C(=O)N1CCSCC1 (centres unmarked) [CBK305748] | 97
CC(C)Oc1ncc(C(=O)Nc2ccc(OCCC(N)=O)cc2)cc1Cl [CBK305750] | 102
Cc1noc(C)c1CN1CCC(Cc2ccccc2)CC1 [CBK305752] | 96.8
Cc1nc(CNCc2c(C)nn(C)c2N2CCOCC2)cs1 [CBK305753] | 83.7
Cc1cccc(NCC2CCN(Cc3cc(=O)n4ccccc4n3)C2)n1 (centres unmarked) [CBK305756] | 100
COCCN(C(=O)c1ccc2ccccc2c1)C1CCS(=O)(=O)C1 (centres unmarked) [CBK305758] | 102
Cc1cc(C2CCCN2C(=O)c2ccc(C(F)(F)F)nc2)on1 (centres unmarked) [CBK305761] | 88.6
Cc1ccc(Cl)c(OC(C)C(=O)N2CCC(CC(N)=O)CC2)c1 (centres unmarked) [CBK305762] | 93
Cc1csc(C2CN(Cc3ccn(C)c(=O)c3)CCO2)n1 (centres unmarked) [CBK305763] | 91.4
Cc1cccn2c(=O)cc(CN3CCC(c4cn[nH]c4)CC3)nc12 [CBK305764] | 101
Cc1nc(S(=O)(=O)N2CCC(C(=O)N3CCCCCC3)CC2)cn1C [CBK305765] | 99.3

Structure (SMILES) | viability at 28.5 h, 10 µM [%]
CC(C)(C)OC(=O)N1CCCC(C(=O)NC(C(N)=O)c2ccccc2)C1 (centres unmarked) [CBK305766] | 99.8
CCN(Cc1cccs1)C(=O)NC1CCCc2c1cnn2CCO (centres unmarked) [CBK305768] | 81.6
CCOc1ccc(C(=O)N2CC(C(N)=O)CCC2C)cn1 (centres unmarked) [CBK305770] | 102
CC1CCc2c(sc3ncnc(OCC(=O)N4CCNC4=O)c23)C1 (centres unmarked) [CBK305775] | 96.1
Cc1cccc(CN2CCC(NC(=O)C3(C#N)CCCC3)CC2)c1 [CBK305781] | 91.8
O=C(CCc1cc(F)ccc1F)NCCCn1nc2n(c1=O)CCCC2 [CBK305782] | 97.7
Cc1nc(S(=O)(=O)N2CCC(C(=O)N3CCCC3)CC2)cn1C [CBK305786] | 88.3
CC1CCN(C(=O)CC(NC(N)=O)c2cccc(Br)c2)CC1 (centres unmarked) [CBK305788] | 95.3
CCn1c(C)cc(C(=O)N2CCN(c3nccc(OC)n3)CC2)c1C [CBK305791] | 95.5
Cc1nn(C)c2ncc(S(=O)(=O)NC(C)c3ccc(F)cc3)cc12 (centres unmarked) [CBK305793] | 93.4
COc1ccc(Cl)cc1CN(C)C(=O)c1ccc(C)[nH]c1=O [CBK305794] | 92.9
Cc1nc(CCNC(=O)C2CC(c3cccc(F)c3)=NO2)cs1 (centres unmarked) [CBK305798] | 106
CC(=O)Nc1ccc(NCc2nc(CC(C)C)no2)c(C(F)(F)F)c1 [CBK305799] | 110
COc1ccnc(N2CCN(C(=O)c3ccc(C)n3C)CC2)n1 [CBK305803] | 84.7
CC1CCCN(C(=O)CC(NC(N)=O)c2cccc(Br)c2)CC1 (centres unmarked) [CBK305804] | 91.7
O=C1CN(c2nc(-c3ccncc3)nc3ccccc23)CCN1 [CBK305805] | 91.9
Cc1ccc(CCC(=O)N(CCC#N)C2CCOCC2)c(C)c1 [CBK305809] | 87.4
CC1CCC(C(N)=O)CN1C(=O)c1csc(Br)c1 (centres unmarked) [CBK305812] | 92.3
Cc1nc2n(c1C)CCN(c1ccc3nnc(C(F)(F)F)n3n1)C2 [CBK305815] | 102
Cc1cc(C#N)ccc1OCC(=O)NC1CCS(=O)(=O)C1 (centres unmarked) [CBK305816] | 84.9
COC(=O)c1cccn2cc(CN(CC#N)C3CC3)nc12 [CBK305821] | 105
Cc1noc(C)c1CC(=O)NCc1cccc(C#N)c1 [CBK305822] | 106
Cc1cc(=O)n2ncn(CC(=O)NCCOc3ccccc3)c2c1 [CBK305823] | 99.3

Structure (SMILES) | viability at 28.5 h, 10 µM [%]
CNS(=O)(=O)c1cccc(C(C)NC(=O)N2CCSCC2)c1 (centres unmarked) [CBK305825] | 95.1
Cc1ccc(NCC2CCN(c3cc(=O)n4oc(C)cc4n3)C2)nc1 (centres unmarked) [CBK305827] | 90.1
Cc1nc(C)n(CC2CCCN(Cc3nc4ccccc4o3)C2)n1 (centres unmarked) [CBK305828] | 95.3
CN(Cc1ccccc1N1CCOCC1)C(=O)Cc1cn2ccsc2n1 [CBK305830] | 109
COCCn1c(SC(C)C(=O)N2CCNC2=O)nc2ccccc21 (centres unmarked) [CBK305832] | 85.7
COc1ccc(-c2nn(CCC#N)cc2C(=O)N2CCCCC2)cc1 [CBK305834] | 92.4
COc1cccc(-c2nn(CCC#N)cc2C(N)=O)c1 [CBK305835] | 95
CCN(CC(=O)NCc1ccc(F)cc1)S(=O)(=O)c1ccc(Cl)s1 [CBK305837] | 88.2
Cc1nc2ncnn2c(C)c1CCC(=O)OCc1ccc(C#N)cc1 [CBK305838] | 83.7
CCN(CC(=O)NCc1ccc(F)cc1)C(=O)c1ccc(C#N)cc1 [CBK305841] | 100
CCN(CC)S(=O)(=O)c1ccc(C(=O)NCc2ccc(OC)cc2)cc1 [CBK305844] | 71.6
CCCNC(=O)CN(C)CC(=O)Nc1sc2c(c1C#N)CCC(C)C2 (centres unmarked) [CBK305845] | 82.5
CC(Nc1ccc(N2CCOCC2)cc1)C(=O)Nc1cccc(C#N)c1 (centres unmarked) [CBK305846] | 82.2
CC(C)Oc1ccc(C(=O)N2CCN(c3ccccc3)CC2)cc1 [CBK305847] | 83.5
Cc1nn(C)c(C)c1NC(=O)COc1ccccc1C#N [CBK305850] | 95
O=C(CSc1ccc(Cl)cc1)Nc1ccc(CN2CCOCC2)cc1 [CBK305855] | 89
Cc1nc2nc(N)nn2c(C)c1CCC(=O)NCc1ccccc1F [CBK305860] | 77.6
CCNc1nc(-c2ccc3c(c2)CCCN3S(C)(=O)=O)cs1 [CBK305861] | 89.8
CCOC(=O)c1sc2nc(C(C)N3CCOCC3)[nH]c(=O)c2c1C (centres unmarked) [CBK305862] | 82.5
CC(=O)Nc1ccc(-c2csc(N3CCN(C)CC3)n2)cc1 [CBK305865] | 93.6
COc1ccccc1CN(Cc1cccs1)C(=O)Cn1cnnn1 [CBK305866] | 96.5
Cc1cc(C(=O)CSc2nc3cc(Cl)cnc3[nH]2)c(C)n1C1CC1 [CBK305867] | 79.5
CC(=O)Nc1cccc(C(=O)OCC(=O)N2CCCCC2C)c1 (centres unmarked) [CBK305868] | 76.6
